Common to all, as to assay type: cell-based
In experiment [1] the target is hA1 (Homo sapiens (Human), UniProt P30542). The experiment in a line: FLIPR inhibition assay in hADORA1/CHO (hA1 expressing) cells. As to conditions: FLIPR calcium, adenosine stimulation. How it is done:
hADORA1/CHO (hA1 expressing) cells (Genscript) were plated at 1×10^4 cells/well into 384-well polystyrene plates one day before starting the experiment. On the day of experiment, the supernatant was discard and replaced with 40 µL of dye (FLIPR calcium 5 Assay Kit) per well and the plates were incubated for 60 mins at 37° C. plus 5% CO2. Then testing compounds were added at different concentrations for FLIPR™ inhibition assay. After a 400 s incubation with compound, […] adenosine was added into the cells, and the signal was captured by FLIPR.

The target in experiment [2] is hA2b (Homo sapiens (Human), UniProt P29275). As to the kind of experiment: cAMP inhibition assay in hA2b/CHO cells. As to conditions: adenosine stimulation, read-out: cAMP & FLIPR IC50 (nM) hA2b. On the procedure: (§1) hA2a/CHO, hA2b/CHO and mA2a/CHO (Genscript) were plated at 5×10^3 cells/well into 384-well polystyrene plates at the day of experiment. Compounds were pre-incubated with cells for 30 min at 37° C., 5% CO2. Then […] adenosine was added to the cells and incubated for 30 min at 37° C., 5% CO2. Detection reagent (CISBIO) was added and the plates were incubated for 60 min at room temperature. The signal was captured by Envision.
Sequence of hA2b (P29275 whole entry): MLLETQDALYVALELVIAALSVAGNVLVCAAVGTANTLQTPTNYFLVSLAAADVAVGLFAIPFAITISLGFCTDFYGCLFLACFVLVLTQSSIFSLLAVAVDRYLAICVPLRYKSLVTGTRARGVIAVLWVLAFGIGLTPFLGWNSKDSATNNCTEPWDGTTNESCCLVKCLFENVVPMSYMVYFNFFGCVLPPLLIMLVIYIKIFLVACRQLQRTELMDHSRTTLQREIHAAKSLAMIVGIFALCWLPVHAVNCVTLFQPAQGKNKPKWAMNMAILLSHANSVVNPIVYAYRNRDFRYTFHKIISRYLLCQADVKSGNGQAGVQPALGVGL

In experiment [3] the target is hA2a (Homo sapiens (Human), UniProt P29274). As to the kind of experiment: cAMP inhibition assay in hA2a/CHO cells. As to conditions: adenosine stimulation, read-out: cAMP & FLIPR IC50 (nM) hA2a. On the procedure: as §1
Sequence of hA2a (P29274 whole entry): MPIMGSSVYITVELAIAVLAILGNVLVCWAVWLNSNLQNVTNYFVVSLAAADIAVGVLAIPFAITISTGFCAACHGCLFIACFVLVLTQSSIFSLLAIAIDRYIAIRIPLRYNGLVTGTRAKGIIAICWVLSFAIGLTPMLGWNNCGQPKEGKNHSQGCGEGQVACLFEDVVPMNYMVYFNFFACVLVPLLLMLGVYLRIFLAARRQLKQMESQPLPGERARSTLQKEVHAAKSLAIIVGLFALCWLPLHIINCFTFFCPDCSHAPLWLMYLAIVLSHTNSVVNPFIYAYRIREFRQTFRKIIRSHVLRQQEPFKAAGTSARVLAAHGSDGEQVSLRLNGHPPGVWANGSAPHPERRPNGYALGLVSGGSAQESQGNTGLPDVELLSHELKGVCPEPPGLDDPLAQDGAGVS
FLIPR™ and cAMP inhibition activities of exemplary compounds in different adenosine receptor over-expressing cell lines are shown in Table 4 below.

Experiment [4] deals with mA2a (Mus musculus (Mouse), UniProt Q60613). As to the kind of experiment: cAMP inhibition assay in mA2a/CHO cells. As to conditions: adenosine stimulation, read-out: cAMP & FLIPR IC50 (nM) mA2a. On the procedure:
as §1

Where [5] appears, read: hADORA1/CHO cells, read-out: cAMP & FLIPR IC50 (nM) hA1.
The mark [6] stands for this setting: cAMP & FLIPR IC50 (nM) hA1, hADORA1/CHO cells.

We go through 20 compounds from patent US10858365B2, “Triazolo-pyrimidine compounds and uses thereof” (Dizal (Jiangsu) Pharmaceutical Co., Ltd., priority 2018, dated 2020).

Where two headings read alike, the source gives them in different places.

For orientation: IC50 means the point on the concentration scale where inhibition reaches its midpoint.

Sequence of hA1 (P30542 whole entry): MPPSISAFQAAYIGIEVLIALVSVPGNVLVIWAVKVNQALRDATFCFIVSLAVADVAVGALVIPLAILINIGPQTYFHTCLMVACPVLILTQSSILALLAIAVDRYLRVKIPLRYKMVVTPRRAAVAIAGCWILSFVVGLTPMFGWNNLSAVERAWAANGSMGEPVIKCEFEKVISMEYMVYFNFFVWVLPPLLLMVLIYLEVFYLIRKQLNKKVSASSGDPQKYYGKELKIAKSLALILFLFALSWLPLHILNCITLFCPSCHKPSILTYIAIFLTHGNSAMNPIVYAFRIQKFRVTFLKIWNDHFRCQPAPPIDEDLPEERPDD
Sequence of mA2a (Q60613 whole entry): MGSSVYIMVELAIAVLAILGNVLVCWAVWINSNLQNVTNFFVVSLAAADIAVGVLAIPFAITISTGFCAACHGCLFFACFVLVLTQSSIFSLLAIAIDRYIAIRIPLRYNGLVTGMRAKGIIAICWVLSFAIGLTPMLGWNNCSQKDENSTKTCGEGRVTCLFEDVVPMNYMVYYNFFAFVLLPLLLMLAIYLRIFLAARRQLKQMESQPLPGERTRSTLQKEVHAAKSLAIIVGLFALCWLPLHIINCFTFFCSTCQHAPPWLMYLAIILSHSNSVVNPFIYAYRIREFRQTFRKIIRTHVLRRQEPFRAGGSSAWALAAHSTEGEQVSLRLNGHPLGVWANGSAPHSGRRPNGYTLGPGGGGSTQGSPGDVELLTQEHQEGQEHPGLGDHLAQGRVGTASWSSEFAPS

`Cn1cc(-c2c(-c3ccc(Cl)cc3)nc(N)n3nc(Cc4ncccc4F)nc23)ccc1=O` [Example 56, 5-(5-amino-7-(4-chlorophenyl)-2-((3-fluoropyridin-2-yl)methyl)-[1,2,4]triazolo[1,5-c]pyrimidin-8-yl)-l-methylpyridin-2(1H)-one]: the IC50 in experiment [1] (setting [5]) worked out at 34 nM; in experiment [2], 142 nM; in experiment [3], 22 nM; in experiment [4] it was 36 nM.
Turning to `Cn1cc(-c2c(-c3ccc(C#N)cc3)nc(N)n3nc(Cc4ncccc4F)nc23)ccc1=O` [Example 57, 4-(5-amino-2-((3-fluoropyridin-2-yl)methyl)-8-(1-methyl-6-oxo-1,6-dihydropyridin-3-yl)-[1,2,4]triazolo[l,5-c]pyrimidin-7-yl)benzonitrile], the IC50 was 76 nM in experiment [1] (setting [5]), 399 nM in experiment [2], 120 nM in experiment [3] and 219 nM in experiment [4].
The matching figures for `Cn1cc(-c2c(-c3ccc(F)cc3)nc(N)n3nc(Cc4cscn4)nc23)ccc1=O` [Example 58, 5-[5-amino-7-(4-fluorophenyl)-2-[(1,3-thiazol-4-yl)methyl]-[1,2,4]triazolo[1,5-c]pyrimidin-8-yl]-1-methyl-1,2-dihydropyridin-2-one]: 25 nM, 2290 nM, 29 nM and 47 nM.
Taken in the same sequence, the figures for `Cn1cc(-c2nc(N)n3nc(Cc4ncccc4F)nc3c2-c2ccc(=O)n(C)c2)cn1` [Example 59, 5-(5-amino-2-((3-fluoropyridin-2-yl)methyl)-7-(1-methyl-1H-pyrazol-4-yl)-[1,2,4]triazolo[1,5-c]pyrirridin-8-yl)-l-methylpyridin-2(1H)-one] were 37 nM, 1550 nM, 98 nM and 179 nM.
The matching figures for `Nc1nc(-c2ccc(F)cc2)c(-c2ccc(=O)n(C3CS(=O)(=O)C3)c2)c2nc(Cc3c(F)cccc3F)nn12` [Example 60, 5-(5-amino-2-(2,6-difluorobenzyl)-7-(4-fluorophenyl)-[1,2,4]triazolo[1,5-c]pyrimidin-8-yl)-1-(1,1-dioxidothietan-3-yl)pyridin-2(1H)-one]: 40 nM, 3300 nM, 56 nM and 16 nM.
`Cn1cc(-c2c(-n3cccn3)nc(N)n3nc(Cc4ncccc4F)nc23)ccc1=O` [Example 63, 5-[5-amino-2-[(3-fluoropyridin-2-yl)methyl]-7-(1H-pyrazol-1-yl)-[1,2,4]triazolo[1,5-c]pyrimidin-8-yl]-1-methyl-1,2-dihydropyridin-2-one]: the IC50 was 250 nM in experiment [1] (setting [5]), 1560 nM in experiment [2], 122 nM in experiment [3] and 125 nM in experiment [4].
Take `Cn1cc(-c2c(-c3ccc(F)cc3F)nc(N)n3nc(Cc4ncccc4F)nc23)ccc1=O` [Example 64, 5-(5-amino-7-(2,4-difluorophenyl)-2-((3-fluoropyridin-2-yl)methyl)-[1,2,4]triazolo[1,5-c]pyrimidin-8-yl)-l-methylpyridin-2(lH)-one]: the IC50 turned out to be 97 nM in experiment [1] (setting [5]), 742 nM in experiment [2], 68 nM in experiment [3] and 137 nM in experiment [4].
On to `Nc1nc(-c2ccc(F)cc2)c(-c2ccc(=O)n(CCO)c2)c2nc(Cc3c(F)cccc3F)nn12` [Example 65, 5-(5-amino-2-(2,6-difluorobenzyl)-7-(4-fluorophenyl)-[1,2,4]triazolo[1,5-c]pyrimidin-8-yl)-1-(2-hydroxyethyl)pyridin-2(1H)-one], for which the IC50 in experiment [1] (setting [5]) worked out at 17 nM; in experiment [2] it was 14 nM; in experiment [3] it was 0.2 nM; in experiment [4], 0.6 nM.
On to `Cn1cc(-c2c(-c3ccc(F)cc3)nc(N)n3nc(Cc4ncc(F)cc4F)nc23)ccc1=O` [Example 67, 5-(5-amino-2-((3,5-difluoropyridin-2-yl)methyl)-7-(4-fluorophenyl)-[1,2,4]triazolo[1,5-c]pyrimidin-8-yl)-1-methylpyridin-2(1H)-one], for which the IC50 was found to be 13 nM in experiment [1] (setting [5]), 3200 nM in experiment [2], 22 nM in experiment [3] and 21 nM in experiment [4].
Taken in the same sequence, the figures for `Cc1nc(Cc2nc3c(-c4ccc5nccn5c4)c(-c4ccc(F)cc4)nc(N)n3n2)cs1` [Example 68, 7-(4-fluorophenyl)-8-[imidazo[1,2-a]pyridin-6-yl]-2-[(2-methyl-1,3-thiazol-4-yl)methyl]-[1,2,4]triazolo[1,5-c]pyrimidin-5-amine] were 29 nM, 614 nM, 3.2 nM and 12 nM.
Turning to `Cn1cnc2ccc(-c3c(-c4ccc(F)cc4)nc(N)n4nc(Cc5ncccc5F)nc34)cc21` [Example 69, 7-(4-fluorophenyl)-2-((3-fluoropyridin-2-yl)methyl)-8-(1-methyl-1H-benzo[d]imidazol-6-yl)-[1,2, 4]triazolo[l,5-c]pyrimidin-5-amine], the IC50 in experiment [1] (setting [5]) stood at 22 nM; in experiment [2] it was 4.69 nM; in experiment [3], 0.1 nM; in experiment [4], 0.3 nM.
On to `Nc1nc(-c2ccc(F)cc2)c(-c2ccc3nncn3c2)c2nc(Cc3ncccc3F)nn12` [Example 72, 8-([1,2,4]triazolo[4,3-a]pyridin-6-yl)-7-(4-fluorophenyl)-2-((3-fluoropyridin-2-yl)methyl)-[1,2,4]triazolo[1,5-c]pyrimidin-5-amine], for which the IC50 in experiment [1] (setting [5]) came out at 9.7 nM; in experiment [2] it was 1050 nM; in experiment [3], 37 nM; in experiment [4], 107 nM.
Turning to `Nc1nc(-c2ccc(F)cc2)c(-c2ccc3nccn3c2)c2nc(Cc3ncccc3OC(F)F)nn12` [Example 73], the IC50 in experiment [1] (setting [6]) came to 11 nM; in experiment [2] it was 4.8 nM; in experiment [3] it was 0.1 nM; in experiment [4], 0.4 nM.
For `Nc1nc(-c2ncco2)c(-c2ccc3nccn3c2)c2nc(Cc3ncccc3OC(F)F)nn12` [Example 74, 2-((3-(difluoromethoxy)pyridin-2-yl)methyI)-8-(imidazo[1,2-a]pyridin-6-yl)-7-(oxazol-2-yl)-[1,2, 4]triazolo[1,5-c]pyrimidin-5-amine], the IC50 stood at 11 nM in experiment [1] (setting [6]), 14 nM in experiment [2], 0.8 nM in experiment [3] and 1.2 nM in experiment [4].
Consider `Nc1nc(-c2ccc(F)cc2)c(-c2ccc3nc[nH]c3c2)c2nc(Cc3ncccc3F)nn12` [Example 75, 8-(1H-benzo[d]imidazol-6-yl)-7-(4-fluorophenyl)-2-((3-fluoropyridin-2-yl)methyl)-[1,2,4]triazolo [l,5-c]pyrimidin-5-amine], for which the IC50 is 31 nM in experiment [1] (setting [5]), 38 nM in experiment [2], 1.7 nM in experiment [3] and 17 nM in experiment [4].
On to `Cn1cc(-c2c(-c3cc(F)cc(F)c3)nc(N)n3nc(Cc4ncccc4F)nc23)ccc1=O` [Example 76, 5-(5-amino-7-(3,5-difliiorophenyl)-2-((3-fluoropyridin-2-yl)methyl)-[1,2,4]triazolo[1,5-c]pyrimidin-8-yl)-1-methylpyridin-2(1H)-one], for which the half-inhibitory concentration (IC50) in experiment [1] (setting [5]) came out at 8.8 nM; in experiment [2], 253 nM; in experiment [3], 7.9 nM; in experiment [4] it was 19 nM.
The matching figures for `Cn1cc(-c2c(-c3ccccc3Cl)nc(N)n3nc(Cc4ncccc4F)nc23)ccc1=O` [Example 78, 5-(5-amino-7-(2-chlorophenyl)-2-((3-fluoropyridin-2-yl)methyl)-[1,2,4]triazolo[1,5-c]pyrimidin-8-yl)-l-methylpyridin-2(1H)-one]: 1160 nM, 1260 nM, 135 nM and 324 nM.
Consider `CC(C)n1cc(-c2c(-c3ncco3)nc(N)n3nc(Cc4c(F)cccc4F)nc23)ccc1=O` [Example 79, 5-(5-amino-2-(2,6-difluorobenzy1)-7-(oxazol-2-yl)-[1,2,4]triazolo[1,5-c]pyrimidin-8-yl)-l-isopropylpyrdin-2(1H)-one], for which the IC50 turned out to be 28 nM in experiment [1] (setting [5]), 45 nM in experiment [2], 0.7 nM in experiment [3] and 0.9 nM in experiment [4].
In the case of `CC(C)n1cc(-c2c(-c3ncco3)nc(N)n3nc(Cc4ncccc4F)nc23)ccc1=O` [Example 80, 5-(5-amino-2-((3-fluoropyridin-2-yl)methyl)-7-(oxazol-2-yl)-[1,2,4]triazolo[1,5-c]pyrimidin-8-yl)-1-isopropylpyridin-2(1H)-one], the half-inhibitory concentration (IC50) was 25 nM in experiment [1] (setting [5]), 186 nM in experiment [2], 3.6 nM in experiment [3] and 4.9 nM in experiment [4].
In the case of `Cc1cc(-c2c(-c3ncco3)nc(N)n3nc(Cc4c(F)cccc4F)nc23)cc(N)n1` [Example 81, 8-(2-amino-6-methylpyridin-4-yl)-2-(2,6-difluor obenzyl)-7-(oxazol-2-yl)-[1,2,4]triazolo[1,5-c] pyrimidin-5-amine], the IC50 in experiment [1] (setting [5]) turned out to be 5320 nM; in experiment [2], 9090 nM; in experiment [3], 49 nM; in experiment [4], 164 nM.
